The values that follow come from patent publication US20120076899A1, “SHELF STABLE MONATIN SWEETENED BEVERAGE” (Cargill, Incorporated, priority 2009, published 2012).

Each structure is given as a SMILES string.

The nature of this data set: Presence of 3-methyl indole in stored monatin samples (GC, mass spectrometry, olfactometry). In kind it is physicochemical. The following applies: not detected in the initial samples (Day 0) nor in samples stored in the dark. From the text:
A compound described as having a musty flavor and odor during some of the organoleptic evaluations is described herein. […] The compound (3-methylindole; 3-MI; skatole) was identified using gas chromatography (GC), mass spectrometry, and olfactometry based on its retention time, mass spectra, and odor profile using the following method.
The volatile components from a sample were purged onto an absorbent and then thermally desorb them into the cold GC inlet for subsequent separation and identification by mass spectrometry. Simultaneously, the GC column effluent was split between the mass spec and olfactory port to determine the specific odor characteristics for compounds that contribute to the overall odor of the sample.
Each sample was extracted and analyzed in duplicate. […]
Each reconstructed total ion current chromatogram (RTICC) was manually reprocessed to 1) identify the compounds by using olfactory and mass spectral library matching. Compounds that were not detected by olfactory but which gave significant response were also identified, and 2) integrate the peaks to obtain areas for relative comparison to the other samples analyzed. […] Corrected areas for each compound were then converted to graphical form to more easily compare samples analyzed during the test.

Take `Cc1c[nH]c2ccccc12` [3-methylindole]: the “detection of 3-methylindole in stored monatin samples” value is “only found in samples exposed to light”.
